The results in this text go back to ChEMBL document CHEMBL1201862, “PubChem BioAssay data set” (2004).

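Each compound was tested at five concentrations against cells in 96-well plates for 48 hours. The concentration for 50% growth inhibition is given as GI50.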 Active and inactive are the calls of the source. Rule as the data show it: active = GI50 up to about 1.1 µM and inactive = higher. Where only a bound is given, the exact number is not on record here.

Among the test systems are 786-0; A498; A549; DU-145; EKVX; Hs-578T; MCF7; MDA-MB-435; Malme-3M; NCI/ADR-RES; OVCAR-4; OVCAR-5; RPMI-8226; SK-MEL-2; SN12C; SW-620; UACC-62; HL-60; HOP-92.
Holding throughout (assay): NCI-60 cell line screen, 48 h

Consider `CCOC(=O)[C@H](C)OC(=O)[C@@](C)(NC(=O)c1ccccc1C(=O)OC)[C@@H]1NC=C(C(=O)OC)CS1`, for which the GI50 in the assay on 786-0, with A498, in the assay on A549, with DU-145, in the assay on EKVX and in the assay on Hs-578T was > 100 µM (inactive) in each case. The GI50 was 79.1 µM (inactive) in the assay on MCF7; 27.6 µM (inactive) in the assay on MDA-MB-435; 97.3 µM (inactive) with Malme-3M; > 100 µM (inactive) in the assay with NCI/ADR-RES; > 100 µM (inactive) in the assay on OVCAR-4; > 100 µM (inactive) in the assay on OVCAR-5. The GI50 in the assay with RPMI-8226 is 38.1 µM (inactive); in the assay with SK-MEL-2, > 100 µM (inactive); with SN12C it was > 100 µM (inactive); in the assay with SW-620, > 100 µM (inactive); in the assay with UACC-62, 76 µM (inactive).
Regarding `O=C1NC2(CCCCC2)N=C2C(Cl)CCCC12Cl` (configuration not stated), the GI50 with 786-0 was > 100 µM (inactive); in the assay on A498 it was > 100 µM (inactive); in the assay on A549 it was 0.0535 µM (active); with DU-145, > 100 µM (inactive); with EKVX, > 100 µM (inactive); in the assay with HL-60 it was > 100 µM (inactive). The GI50 in the assay with Hs-578T, with MCF7, in the assay with MDA-MB-435, in the assay with Malme-3M, with NCI/ADR-RES and with OVCAR-4 was > 100 µM (inactive) throughout. The GI50 in the assay with OVCAR-5, with RPMI-8226, in the assay on SK-MEL-2, with SN12C, with SW-620 and in the assay on UACC-62 was > 100 µM (inactive) each time.
For the molecule `CC1=C(O)C(=O)C2=C(C1=O)[C@@H]([C@@H](C)C/C=C/C(C)(C)O)CC[C@@H]2C`, the GI50 was > 100 µM (inactive) with 786-0; > 100 µM (inactive) in the assay with A498; 53.5 µM (inactive) with A549; 98.6 µM (inactive) in the assay on DU-145; 33.4 µM (inactive) in the assay on HL-60; 48.6 µM (inactive) in the assay on Hs-578T. In addition, the GI50 was 41.1 µM (inactive) with MCF7; 43.2 µM (inactive) with MDA-MB-435; 77.1 µM (inactive) with NCI/ADR-RES; > 100 µM (inactive) in the assay with OVCAR-5; 23.5 µM (inactive) with RPMI-8226; 39.5 µM (inactive) in the assay on SK-MEL-2. In addition, the figures for the GI50 in the assay on SN12C, in the assay with SW-620 and in the assay on UACC-62 were 87.1 µM (inactive), 77.4 µM (inactive) and 47.4 µM (inactive), respectively.
With `Cc1nc(N(C(C)C)C(C)C)c(C(C)C)o1`, the GI50 in the assay on 786-0, with A498, in the assay on A549, in the assay on DU-145, in the assay on EKVX and in the assay with HL-60 was > 100 µM (inactive) throughout. For the same molecule, the GI50 in the assay with HOP-92, in the assay with Hs-578T, in the assay with MCF7, in the assay on MDA-MB-435, in the assay on Malme-3M and in the assay on NCI/ADR-RES was > 100 µM (inactive) throughout. Besides, the GI50 with OVCAR-4, in the assay with OVCAR-5, in the assay on SN12C, in the assay on SW-620 and in the assay with UACC-62 was > 100 µM (inactive) each time.
Consider `Cc1cc(Nc2ccc(NS(C)(=O)=O)cc2)c2c(ccc3[nH]ccc32)n1`, for which the GI50 in the assay with 786-0 was 20.4 µM (inactive); with A498, 21.2 µM (inactive); in the assay on A549, 33.3 µM (inactive); with DU-145, 18.8 µM (inactive); in the assay with EKVX, 36 µM (inactive); with HOP-92, 19 µM (inactive). For the same molecule, the GI50 in the assay on Hs-578T was 28.6 µM (inactive); with MCF7, 7.4 µM (inactive); with MDA-MB-435 it was 16.1 µM (inactive); in the assay with Malme-3M it was 12.5 µM (inactive); in the assay with NCI/ADR-RES, > 100 µM (inactive); with OVCAR-4 it was 12.4 µM (inactive). Further, the GI50 with OVCAR-5 is 26.2 µM (inactive); in the assay on RPMI-8226, 20.6 µM (inactive); in the assay on SK-MEL-2, 15.9 µM (inactive); in the assay on SN12C, 17.8 µM (inactive); in the assay with SW-620 it was 21.7 µM (inactive); in the assay with UACC-62 it was 15.7 µM (inactive).
Take `C=C(CCC(C)C1CCC2C3=C(C(=O)CC21C)C1(C)CCC(=O)[C@@H](C)C1CC3=O)C(C)C(=O)O` (some centres not stated): the GI50 with 786-0 is 18.3 µM (inactive); with A498, > 100 µM (inactive); with A549, > 100 µM (inactive); in the assay with DU-145, > 100 µM (inactive); with EKVX, 78.7 µM (inactive); with HL-60, 14.7 µM (inactive). Further, the GI50 in the assay with HOP-92 was 30.8 µM (inactive); in the assay on Hs-578T, > 100 µM (inactive); in the assay on MCF7 it was > 100 µM (inactive); in the assay with MDA-MB-435, 65.6 µM (inactive); in the assay with Malme-3M it was > 100 µM (inactive); with NCI/ADR-RES, > 100 µM (inactive). The GI50 was 48.1 µM (inactive) in the assay with OVCAR-4; > 100 µM (inactive) with OVCAR-5; > 100 µM (inactive) in the assay with SK-MEL-2; > 100 µM (inactive) with SN12C; 68.2 µM (inactive) with SW-620; 49.5 µM (inactive) in the assay with UACC-62.
Consider `Cc1ccc2c(c1)C(=O)/C(=C\c1ccccc1)CCS2(=O)=O`, for which the GI50 with 786-0 was 11.2 µM (inactive); with A498, 19.7 µM (inactive); with A549 it was 12.9 µM (inactive); with DU-145 it was 3.27 µM (inactive); with EKVX, 22.1 µM (inactive); in the assay on HL-60 it was 0.303 µM (active). In addition, the GI50 was 12.9 µM (inactive) in the assay with HOP-92; 15.8 µM (inactive) with Hs-578T; 6.21 µM (inactive) with MCF7; 10.8 µM (inactive) in the assay with MDA-MB-435; 10.7 µM (inactive) with Malme-3M; 7.23 µM (inactive) in the assay on NCI/ADR-RES. For the same molecule, the GI50 in the assay on OVCAR-4 is 12 µM (inactive); in the assay on OVCAR-5 it was 19 µM (inactive); in the assay with SK-MEL-2, 18.6 µM (inactive); in the assay with SN12C, 14.2 µM (inactive); in the assay on SW-620, 15.5 µM (inactive); in the assay with UACC-62, 11.9 µM (inactive).
For the molecule `CCCCN1CCC(O)(c2cc(C(=O)O)[nH]c2-c2cc(C)no2)C1=O` (configuration not stated), the GI50 in the assay on 786-0, in the assay on A498, in the assay with A549, in the assay with DU-145, with EKVX and in the assay on HOP-92 was > 100 µM (inactive) each time. The GI50 with Hs-578T, in the assay with MCF7, in the assay on MDA-MB-435, with Malme-3M, in the assay with NCI/ADR-RES and in the assay on OVCAR-4 was > 100 µM (inactive) throughout. In addition, the GI50 with OVCAR-5, with RPMI-8226, with SK-MEL-2, in the assay with SW-620 and in the assay with UACC-62 was > 100 µM (inactive) in each case.
With `CCOC1(OCC)C2C=CC1C(COS(=O)(=O)c1ccc(C)cc1)C2COS(=O)(=O)c1ccc(C)cc1` (configuration not stated), the GI50 was 33.3 µM (inactive) in the assay on 786-0; 24 µM (inactive) with A498; 34.6 µM (inactive) with A549; 39.8 µM (inactive) with DU-145; 22.4 µM (inactive) in the assay on EKVX; 16.9 µM (inactive) with HL-60. Also, the GI50 in the assay on HOP-92 was 12.8 µM (inactive); in the assay with Hs-578T, 37.3 µM (inactive); in the assay with MCF7, 30.2 µM (inactive); with MDA-MB-435 it was 29 µM (inactive); with Malme-3M, 24.4 µM (inactive); in the assay on NCI/ADR-RES, 32 µM (inactive). Also, the GI50 in the assay with OVCAR-4 was 20.8 µM (inactive); with OVCAR-5, 49.4 µM (inactive); with SK-MEL-2, 28.7 µM (inactive); with SN12C, 69.8 µM (inactive); with SW-620, 36.3 µM (inactive); with UACC-62 it was 20.4 µM (inactive).
Turning to `NS(=O)(=O)c1ccc(NS(=O)(=O)c2ccc(NC(=O)N(c3ccccc3)c3ccccc3)cc2)cc1`, the GI50 in the assay on 786-0 was 68.9 µM (inactive); in the assay on A498, > 100 µM (inactive); with A549, > 100 µM (inactive); in the assay on DU-145 it was 43.3 µM (inactive); with EKVX it was > 100 µM (inactive); with HOP-92 it was 51.3 µM (inactive). The GI50 in the assay with Hs-578T is > 100 µM (inactive); with MCF7, 52.7 µM (inactive); in the assay with MDA-MB-435 it was 24.9 µM (inactive); with Malme-3M it was 27.3 µM (inactive); in the assay on NCI/ADR-RES it was > 100 µM (inactive); in the assay with OVCAR-4, 45.2 µM (inactive). The GI50 was > 100 µM (inactive) with OVCAR-5; 24.8 µM (inactive) in the assay with RPMI-8226; 48.5 µM (inactive) with SK-MEL-2; > 100 µM (inactive) in the assay with SN12C; > 100 µM (inactive) in the assay on SW-620; 63.4 µM (inactive) in the assay with UACC-62.
Take `CCOc1nc(N)nc(C)c1/N=N/c1ccc(Cl)cc1`: the GI50 is > 100 µM (inactive) with 786-0; > 100 µM (inactive) in the assay on A549; > 100 µM (inactive) in the assay on DU-145; 51.6 µM (inactive) with EKVX; > 100 µM (inactive) with HL-60; 13.7 µM (inactive) in the assay with HOP-92. The GI50 with Hs-578T is 0.124 µM (active); in the assay on MCF7 it was > 100 µM (inactive); in the assay on MDA-MB-435, > 100 µM (inactive); in the assay on Malme-3M, 34.4 µM (inactive); in the assay with NCI/ADR-RES it was > 100 µM (inactive); with OVCAR-4, > 100 µM (inactive). The GI50 in the assay with OVCAR-5 was > 100 µM (inactive); in the assay with RPMI-8226 it was 25.9 µM (inactive); in the assay on SK-MEL-2, > 100 µM (inactive); with SN12C, 14.1 µM (inactive); with SW-620, > 100 µM (inactive); in the assay with UACC-62, 94.4 µM (inactive).
